As usually defined, the inhibition is the relative decrease from the control value, in per cent.

The target in test [1] is T1, 5-lipoxygenase (Homo sapiens, UniProt P09917).
T1 construct: Blood is obtained in 50-100 ml quantities from male donors; endogenous in cells; host or cells: human whole blood (leukocytes) from male donors
T1 sequence (P09917 1-674): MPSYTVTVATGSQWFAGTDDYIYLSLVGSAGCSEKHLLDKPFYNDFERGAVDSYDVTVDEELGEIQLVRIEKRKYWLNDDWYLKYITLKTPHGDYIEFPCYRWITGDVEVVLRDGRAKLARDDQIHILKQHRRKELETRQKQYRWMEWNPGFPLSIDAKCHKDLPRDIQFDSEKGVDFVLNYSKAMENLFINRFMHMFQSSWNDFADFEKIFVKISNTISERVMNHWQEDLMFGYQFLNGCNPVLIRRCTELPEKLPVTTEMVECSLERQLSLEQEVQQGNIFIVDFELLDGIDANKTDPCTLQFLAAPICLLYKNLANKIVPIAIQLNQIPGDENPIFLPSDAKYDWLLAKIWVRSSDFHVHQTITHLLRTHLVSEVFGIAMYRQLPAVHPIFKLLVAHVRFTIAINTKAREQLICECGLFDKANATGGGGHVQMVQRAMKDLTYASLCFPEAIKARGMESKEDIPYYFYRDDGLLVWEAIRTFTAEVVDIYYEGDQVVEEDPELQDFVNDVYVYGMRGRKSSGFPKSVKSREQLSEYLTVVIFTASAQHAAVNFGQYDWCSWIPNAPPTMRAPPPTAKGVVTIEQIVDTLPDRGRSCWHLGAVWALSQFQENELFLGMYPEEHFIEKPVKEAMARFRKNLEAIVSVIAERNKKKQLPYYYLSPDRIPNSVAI
Put plainly: inhibition of 5-lipoxygenase in human whole blood (LTB4). As to conditions: human whole blood. Format: cell-based. An outline of the steps:
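Donor whole blood preincubated with compound (final 0.1% DMSO) 10 min at 37 °C, then stimulated with 30 μM calcium ionophore A23187 for 20 min at 37 °C; stopped on ice with 10 mM EGTA. Plasma LTB4 measured by RIA or ELISA, expressed per 10^6 neutrophils; IC50 by regression analysis.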

For test [2], the target named is T2, 5-lipoxygenase (Rattus norvegicus, UniProt P12527).
T2 construct: Peritoneal PMN are obtained from female Wistar rats (150-250 g); endogenous in cells; host or cells: rat glycogen-elicited peritoneal polymorphonuclear leukocytes, intact
T2 sequence (P12527 1-673): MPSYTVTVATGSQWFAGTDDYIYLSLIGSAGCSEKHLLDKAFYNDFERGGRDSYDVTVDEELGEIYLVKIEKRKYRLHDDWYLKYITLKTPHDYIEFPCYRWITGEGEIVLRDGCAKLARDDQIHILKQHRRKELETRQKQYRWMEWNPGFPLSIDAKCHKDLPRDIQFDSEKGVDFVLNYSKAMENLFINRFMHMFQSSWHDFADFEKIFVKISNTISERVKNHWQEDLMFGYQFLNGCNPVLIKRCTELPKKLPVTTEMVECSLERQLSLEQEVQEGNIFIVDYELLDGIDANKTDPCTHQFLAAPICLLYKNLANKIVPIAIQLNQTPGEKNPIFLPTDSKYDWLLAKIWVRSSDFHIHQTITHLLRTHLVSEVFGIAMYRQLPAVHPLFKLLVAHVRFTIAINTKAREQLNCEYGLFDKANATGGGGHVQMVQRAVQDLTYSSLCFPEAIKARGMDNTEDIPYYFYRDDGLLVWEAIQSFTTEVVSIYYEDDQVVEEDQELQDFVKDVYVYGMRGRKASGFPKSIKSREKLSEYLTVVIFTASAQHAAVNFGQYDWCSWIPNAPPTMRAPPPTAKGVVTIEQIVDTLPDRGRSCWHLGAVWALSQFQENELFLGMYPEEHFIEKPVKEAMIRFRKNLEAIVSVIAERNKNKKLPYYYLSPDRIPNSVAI
Put plainly: inhibition of 5-HETE synthesis by rat glycogen elicited polymorphonuclear leukocytes. It is filed as cell-based. As to conditions: 10 μM, rat PMN, negative = potentiation of 5-HETE synthesis. The essentials: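 Peritoneal PMN from female Wistar rats given i.p. glycogen 24 h earlier were preincubated with compound for 10 min at 37° C (2×10^7 cells/ml, 10 mM L-cysteine). They were then stimulated 10 min with 10 μM A23187 plus 0.5 μM [14C]arachidonic acid. 5-HETE was separated by TLC and quantified by scintillation.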

Structures can show the parent of a compound that is named as a salt.

In test [1] (25 μM), `C[C@H](C(=O)O)c1ccc2cc(OCc3ccc4ccccc4n3)ccc2c1` [Example 17, S-(α)-α-Methyl-6-(2-quinolinylmethoxy)-2-naphthaleneacetic acid, tromethanime salt] returned an inhibition at 25 µM of 19%. Moreover, in test [2], the “% Inhibition of 5-LO (as 5-HETE)” value was determined as 85%.

Consider `C[C@H](C(=O)N(C)O)c1ccc2cc(OCc3ccc4ccccc4n3)ccc2c1` [Example 24, (S)-N-Hydroxy-α-N-dimethyl-6-(2-quinolinylmethoxy)-2-naphthaleneacetamide], for which the inhibition at 5 µM in test [1] (5 μM, read-out: % Inhibition of LTB4) is 44%. In test [2] (read-out: % Inhibition of 5-LO (as 5-HETE)), the inhibition at 10 µM was 100%.
